From PubChem BioAssay AID1996 come the findings set out here.

≈ marks a conversion by molar mass, not a printed value.

For this series the following is noted: buffer; pH 7.4; 200.0 µM.
Consider `CCC(=NCCc1ccc(OC)c(OC)c1)C1=C(O)CC(C)(C)CC1=O`, for which the kinetic solubility (as a rule, the concentration staying in solution when a stock, usually in DMSO, is diluted into the medium) is 47.3 µg/mL (≈ 132 µM).

For `O=C(O)c1cc(-c2ccccc2Cl)n(-c2ccccc2)n1`, the kinetic solubility is > 44.8 µg/mL.

In the case of `S=C(NCC1CCCO1)NC12CC3CC(CC(C3)C1)C2` (configuration not stated), the kinetic solubility was determined as 4 µg/mL (≈ 13.6 µM).

In the case of `COc1cc(OC)c(OC)cc1CNCc1ccc2c(c1)OCO2`, the solubility (kinetic) was > 49.7 µg/mL.

In the case of `CC1CCCCC12NC(=O)N(CC(=O)NCc1ccco1)C2=O` (configuration not stated), the solubility (kinetic) is > 47.9 µg/mL.

`COc1ccc2[nH]c3c(=O)n(Cc4ccncc4)cnc3c2c1` gave a solubility (kinetic) of 7.3 µg/mL (≈ 23.8 µM).

Consider `O=C(CCCc1ccccc1)Nc1nccs1`, for which the kinetic solubility amounted to 28.5 µg/mL (≈ 116 µM).

In the case of `CCCCn1c(N)c(N(C)C(=O)C2CCCC2)c(=O)[nH]c1=O`, the solubility (kinetic) is > 46.3 µg/mL.

In the case of `COC(=O)/C=C1\SC(=NC(=O)c2ccc(-c3ccccc3)cc2)NC1=O`, the kinetic solubility stood at 2.6 µg/mL (≈ 7.1 µM).

For `CCCCC(CC)C1OCC(CN2CCCCC2)O1` (configuration not stated), the kinetic solubility came out at 4.3 µg/mL (≈ 16 µM).

For the molecule `COc1ccc(NC(=O)CN2C(=O)C(=O)N(C3CCCC3)C2=O)c(OC)c1`, the solubility (kinetic) was > 56.3 µg/mL.

For the molecule `Cc1ccc(NC(=O)COC(=O)CCc2ccccc2)cc1S(=O)(=O)N1CCOCC1`, the kinetic solubility turned out to be 24.6 µg/mL (≈ 55.1 µM).

With `NC1C2CN3CCN(C2)CC1(c1ccccc1)C3` (configuration not stated), the kinetic solubility is > 36.5 µg/mL.

Take `CC(C)[C@H](NC(=O)c1ccccc1)C(=O)OCC(=O)NCC1CCCO1` (some centres not stated): the solubility (kinetic) was > 54.4 µg/mL.

Turning to `COC(=O)c1cc2cc(Cl)ccc2nc1SC`, the solubility (kinetic) was < 0.6 µg/mL.

`COc1ccccc1NC(=O)c1cc(N)cc(C(=O)Nc2ccccc2OC)c1` registered a solubility (kinetic) of 29.5 µg/mL (≈ 75.4 µM).

Consider `CN(CC(=O)Nc1c(Cl)cccc1Cl)C(=O)CCC1CCCC1`, for which the solubility (kinetic) was determined as 53.4 µg/mL (≈ 149 µM). This solubility kinetic is about 1.8-fold higher than that of the molecule before.

For the molecule `OC(C#CCCN1CCCCC1)(c1ccccc1)c1ccccc1`, the solubility (kinetic) came out at 37.7 µg/mL (≈ 118 µM).

Consider `Cc1cc(C(=O)Nc2ccccc2C(=O)O)c(C)o1`, for which the kinetic solubility was > 38.9 µg/mL.

Regarding `CC(C)S(=O)(=O)c1cnc(-c2cccnc2)nc1N`, the kinetic solubility amounted to 37.7 µg/mL (≈ 135 µM).

Take `COC(=O)c1sccc1NC(=O)c1cccc(Cl)c1`: the solubility (kinetic) is < 0.6 µg/mL.

With `CCCC(=O)Nc1nnc(SCC(=O)N2CCCCC2)s1`, the solubility (kinetic) is > 49.3 µg/mL.

Molecule `O=C(Nc1ccc(NC(=O)C2CCCCC2)nc1)c1cccc(F)c1` came in with a solubility (kinetic) of 1.2 µg/mL (≈ 3.52 µM).

`CC(=O)c1cccc(NC(=O)Nc2ccccc2)c1` came in with a kinetic solubility of 10.5 µg/mL (≈ 41.3 µM).

In turn, `COc1ccc(NC(=O)N2CCCc3ccccc32)c(OC)c1` returned a solubility (kinetic) of 45.3 µg/mL (≈ 145 µM).

Molecule `CC(=O)c1csc(-c2ccccc2)n1` showed a solubility (kinetic) of 16.6 µg/mL (≈ 81.7 µM).

As for `Cc1ccc([N+](=O)[O-])cc1NC(=S)NCCc1ccccc1`, the solubility (kinetic) worked out at 39.4 µg/mL (≈ 125 µM).

`Cc1ccc(-c2nc3ccccc3nc2-c2ccccc2)cc1` had a kinetic solubility of 1 µg/mL (≈ 3.37 µM).

Turning to `O=C(Cn1c(CO)nc2ccccc21)NCc1ccc2c(c1)OCO2`, the kinetic solubility is > 50.9 µg/mL.

`COc1ccc(/C=C/C(=O)OCC(=O)NCCc2ccccc2)c(OC)c1` showed a solubility (kinetic) of 8.5 µg/mL (≈ 23 µM).

`CN(C)C(=O)c1ccc(NC(=O)c2sccc2-c2ccccc2)cc1` displayed a kinetic solubility of 49.1 µg/mL (≈ 140 µM). This solubility kinetic lies about 5.8-fold higher than the previous one.

`O=C(c1ccc(Br)cc1)N1CCN(Cc2ccccc2)CC1` showed a kinetic solubility of 38.9 µg/mL (≈ 108 µM).

Regarding `CC(C)(C)c1cc(NC(=O)c2cccs2)no1`, the solubility (kinetic) came to 32.7 µg/mL (≈ 131 µM).

In turn, `COC(=O)[C@H](CCSC)NC(=O)Nc1cccc(C)c1C` displayed a kinetic solubility of 37.1 µg/mL (≈ 120 µM). The solubility kinetic values of the last two molecules are within 1.5-fold of each other.

In the case of `COc1ccc(/C=C(\C#N)C(=O)OCC(=O)NC2CC2)cc1`, the solubility (kinetic) was found to be 10.1 µg/mL (≈ 33.6 µM).

Molecule `CCCC1C(=O)N(Cc2ccccc2)C(=O)CC1C` (configuration not stated) returned a solubility (kinetic) of 31.1 µg/mL (≈ 120 µM).

In turn, `Cc1cccc(C2NC(=O)c3ccccc3O2)c1` (configuration not stated) yielded a solubility (kinetic) of 24.3 µg/mL (≈ 102 µM).

Consider `Cc1ccc(C(=O)Nc2ccc(C(=O)NCC3CCCO3)cc2)cc1` (configuration not stated), for which the kinetic solubility was 3.5 µg/mL (≈ 10.3 µM).

In turn, `CCOc1ccc(Cc2c(C)[nH]c3ccc(C(=O)O)cc3c2=S)cc1` had a kinetic solubility of 36.2 µg/mL (≈ 102 µM).

The molecule `O=C(O)C1CCN(S(=O)(=O)Cc2ccccc2)CC1` came in with a kinetic solubility of 33.3 µg/mL (≈ 118 µM).

Consider `COCCn1cnc2c1c(=O)[nH]c(=O)n2Cc1ccccc1`, for which the solubility (kinetic) worked out at 37 µg/mL (≈ 123 µM).

`O=C(COc1ccccc1/C=C1\SC(=S)NC1=O)Nc1ccc(F)cc1` displayed a kinetic solubility of 3 µg/mL (≈ 7.72 µM).

Take `N#Cc1c(SCC(N)=O)nc2c(c1-c1ccncc1)CCCC2`: the solubility (kinetic) is > 48.7 µg/mL.

On to `Cc1cccc(-n2c(=O)c3c(C)c(C)sc3n(CC(N)=O)c2=O)c1`, for which the kinetic solubility was > 51.5 µg/mL.

`O=C(CSc1nc2ncccc2[nH]1)c1ccc2c(c1)OCO2` had a solubility (kinetic) of 0.7 µg/mL (≈ 2.23 µM).

The molecule `CCCCNC(=S)Nc1ccc(Oc2ccccc2)cc1` displayed a kinetic solubility of 6.5 µg/mL (≈ 21.6 µM).

On to `CN(C(=O)COC(=O)c1ccc2ccccc2n1)C1CCCCC1`, for which the kinetic solubility is > 49 µg/mL.

`COC(=O)c1cc(OC(=O)c2ccc(=O)[nH]c2)cc(C(=O)OC)c1` had a solubility (kinetic) of 12.6 µg/mL (≈ 38 µM).

As to `COc1ccccc1CC1CC(=O)N(c2ccccc2)C1=O` (configuration not stated), the solubility (kinetic) was > 44.3 µg/mL.

`Cc1ccc(CC(=O)Nc2ncc([N+](=O)[O-])s2)cc1`: the kinetic solubility worked out at 6.5 µg/mL (≈ 23.4 µM).

With `CN1CCN(c2ccccc2/C=N/NC(=O)c2cccnc2)CC1`, the kinetic solubility was > 48.5 µg/mL.

In turn, `CC(Oc1ccc(C#N)cc1)C(=O)N1CC=C(c2ccccc2)CC1` (configuration not stated) returned a solubility (kinetic) of 38.4 µg/mL (≈ 116 µM).
